The values that follow come from patent publication US7785828B1 (priority 2003, dated 2010).

This test has as its system Fusarium graminearum. It counts as cell-based.
Setting [1] is: Table 2C (mixed diversity library), improvement compared to reference defensin protein DmAMP.
[2] abbreviates: Table 2B (Dm-AMP1 based libraries), improvement compared to reference defensin protein (Rs-AFP2 for Table 2B [sic]).

Like-named read-outs stand apart in the source and are kept apart here.

Regarding “---NLCERASKTWSGHCGNTKHCDNQCRNWEGAKHGACHKRNGKWKCFCYFNC (Defensin like) [L7-11]”, the “Activity (1): antifungal activity of the NP against Fusarium graminearium” value (“Activity (1): antifungal activity” below) under setting [1] is recorded as “++ (++ indicates a >5- to 10-fold improvement)”.

As to “---NLCERPSKTWTGHCGNTKHCDKQCKSWEGAKHGACHVRSGKWKCFCYFNC (Defensin like) [L7-26]”, the “Activity (1): antifungal activity” value under setting [1] is recorded as “++ (++ indicates a >5- to 10-fold improvement)”.

As for “--QKLCEKASKTWTGNCGNTKHCDKQCRSWEKAKHGACHVRNGKWKCFCYFNC (Defensin like) [L7-59]”, the “Activity (1): antifungal activity” value under setting [1] is “++ (++ indicates a >5- to 10-fold improvement)”.

Regarding “--QKLCEKASQTWTGHCGNTKHCDNQCRNWEKAAHGACHVRNGKWKCFCYFNC (Defensin like) [L7-19]”, the “Activity (1): antifungal activity” value under setting [1] was “+ (+ indicates a 1- to 5-fold improvement in activity compared to a reference defensin protein)”.

Regarding “--QKLCERASKTWTGHCGNTKHCDKQCKNWEKAKHGACHVRNGKWKCFCYFNC (Defensin like) [L7-34]”, the “Activity (1): antifungal activity” value under setting [1] is “+ (+ indicates a 1- to 5-fold improvement in activity compared to a reference defensin protein)”.

On to “--QKLCERPSQTWTGHCGNTKHCDKQCKNWEGAKHGACHVRNGKWKCFCYFNC (Defensin like) [L7-89]”, for which the “Activity (1): antifungal activity” value under setting [1] is on record as “+ (+ indicates a 1- to 5-fold improvement in activity compared to a reference defensin protein)”.

Regarding “--QKLCERPSQTWTGHCGNTKHCDTQCKSWEGAKHGACHKRNGKWKCFCYFNC (Defensin like) [L7-44]”, the “Activity (1): antifungal activity” value under setting [1] is listed as “+ (+ indicates a 1- to 5-fold improvement in activity compared to a reference defensin protein)”.

In the case of “DGVKLCEKASQTWTGNCGNTKHCDNQCKNWEKAKHGACHKRSGKWKCFCYFNC (Defensin like) [L7-42]”, under setting [1], the “Activity (1): antifungal activity” value is “+ (+ indicates a 1- to 5-fold improvement in activity compared to a reference defensin protein)”.

With “DGVKLCEKPSKTWSGHCGNTKHCDKQCKNWEKAKHGACHKRNGKWKCFCYFNC (Defensin like) [L7-113]”, under setting [1], the “Activity (1): antifungal activity” value is “+ (+ indicates a 1- to 5-fold improvement in activity compared to a reference defensin protein)”.

As to “DGVKLCEKPSQTWSHCGNTKHCDNQCKNWEGAAHGACHKRSGKWKCFCYFNC (Defensin like) [L7-231]”, under setting [1], the “Activity (1): antifungal activity” value is “++ (++ indicates a >5- to 10-fold improvement)”.

For “DGVKLCEKPSQTWTGHCGNTKHCDKQCKNWEGAKHGACHKRNGKWKCFCYFNC (Defensin like) [L7-178]”, the “Activity (1): antifungal activity” value under setting [1] is “++ (++ indicates a >5- to 10-fold improvement)”.

As to “DGVKLCEKPSQTWTGNCGNTKHCDKQCRNWEKAKHGACHKRNGKWKCFCYFNC (Defensin like) [L7-46]”, the “Activity (1): antifungal activity” value under setting [1] was “+ (+ indicates a 1- to 5-fold improvement in activity compared to a reference defensin protein)”.

In the case of “DGVKLCERASKTWSGHCGNTKHCDKQCKNWEKAKHGACHKRSGKWKCFCYFNC (Defensin like) [L7-219]”, under setting [1], the “Activity (1): antifungal activity” value is “+ (+ indicates a 1- to 5-fold improvement in activity compared to a reference defensin protein)”.

Take “DGVKLCERASKTWSGHCGNTKHCDNQCRSWEGAKHGACHVRSGKHKCFCYFNC (Defensin like) [L7-213]”: the “Activity (1): antifungal activity” value under setting [1] is “++ (++ indicates a >5- to 10-fold improvement)”.

For “DGVKLCERASKTWTGHCGNTKHCDKQCKNWEKAAHGACHVRNGKWKCFCYFNC (DGVKLCERASKTWSGHCGNTKHCDKQCKNWEKAAHGACHVRNGKWKCFCYFSC; Defensin like) [L7-93]”, the “Activity (1): antifungal activity” value under setting [1] is on record as “+++ (+++ indicates a >10-fold improvement)”.

As for “DGVKLCERASKTWTGNCGNTKHCDKQCKNWEGAKHGACHKRNGKWKCFCYFNC (Defensin like) [L7-107]”, under setting [1], the “Activity (1): antifungal activity” value is on record as “+ (+ indicates a 1- to 5-fold improvement in activity compared to a reference defensin protein)”.

Consider “DGVKLCERASKTWTGNCGNTKHCDNQCKSWEGAKHGACHVRNGKHKCFCYFNC (Defensin like) [L7-76]”, for which, under setting [1], the “Activity (1): antifungal activity” value is listed as “++ (++ indicates a >5- to 10-fold improvement)”.

Consider “DGVKLCERASQTWSGHCGNTKHCDKQCKNWEKAAHGACHVRSGKWKCFCYFNC (Defensin like) [L7-14]”, for which, under setting [1], the “Activity (1): antifungal activity” value is given as “++ (++ indicates a >5- to 10-fold improvement)”.

As for “DGVKLCERASQTWTGHCGNTKHCDKQCKSWEKAKHGACHVRNGKWKCFCYFNC (Defensin like) [L7-15]”, the “Activity (1): antifungal activity” value under setting [1] is “++ (++ indicates a >5- to 10-fold improvement)”.

“DGVKLCERPSQTWSGNCGNTKHCDKQCRNWEKAKHGACHKRNGKWKCFCYFNC (Defensin like) [L7-123]”: the “Activity (1): antifungal activity” value under setting [1] is reported as “+ (+ indicates a 1- to 5-fold improvement in activity compared to a reference defensin protein)”.

With “DGVKLCERPSQTWTGHCGNTKHCDKQCRNWEGAAHGACHKRSGKWKCFCYFNC (Defensin like) [L7-83]”, under setting [1], the “Activity (1): antifungal activity” value is reported as “++ (++ indicates a >5- to 10-fold improvement)”.

Regarding “DGVKLCERPSQTWTGNCGNTKHCDKQCKSWEGAKHGACHKRNGKWKCFCYFNC (Defensin like) [L7-99]”, the “Activity (1): antifungal activity” value under setting [1] was “+ (+ indicates a 1- to 5-fold improvement in activity compared to a reference defensin protein)”.

As to “ELCERASKTWTGNCGNTKHCDNQCRSWESAAHGACHKRSGKWKCFCYFNC (Defensin like) [L3-87]”, under setting [2], the “Activity (1): antifungal activity” value is listed as “++ (++ indicates a >5- to 10-fold improvement)”.

In the case of “ELCERASLTWTGNCGNTKHCDTQCKSWEGAKHGACHKRSGKWKCFCYFNC (Defensin like) [L3-96]”, the “Activity (1): antifungal activity” value under setting [2] is listed as “+ (+ indicates a 1- to 5-fold improvement in activity compared to a reference defensin protein)”.

For “NLCEKASKTWTGNCGNTKHCDNQCKNWESAAHGACHKRNGKWKCFCYFNC (Defensin like) [L3-79]”, under setting [2], the “Activity (1): antifungal activity” value was “++ (++ indicates a >5- to 10-fold improvement)”.

With “NLCEKASKTWTGNCGNTKHCDNQCRSWEGAKHGACMKRSGKWKCFCYFNC [L10-76]”, under setting [2], the “Activity (1): antifungal activity” value is on record as “++ (++ indicates a >5- to 10-fold improvement)”.

In the case of “NLCERASKTWAGNCGNTKHCDNQCRSWEGAKHGACHVRNGKWKCFCYFNC (Defensin like) [L10-33]”, the “Activity (1): antifungal activity” value under setting [2] is listed as “+ (+ indicates a 1- to 5-fold improvement in activity compared to a reference defensin protein)”.

“NLCERASKTWSGDCGNTKHCDNQCRNWEGAKHGACHKRNGKWKCFCYFNC (Defensin like) [L10-62]”: the “Activity (1): antifungal activity” value under setting [2] was “++ (++ indicates a >5- to 10-fold improvement)”.

Turning to “NLCERASKTWSSNCGNTKHCDTQCKNWEGAKHGACHVRNGKWKCFCYFNC (Defensin like) [L10-60]”, the “Activity (1): antifungal activity” value under setting [2] is reported as “++ (++ indicates a >5- to 10-fold improvement)”.

Consider “NLCERASKTWTGNCGNTKHCDNQCKNWEGAAHGACHKRSGKWKCFCYFNC (Defensin like) [L10-80]”, for which the “Activity (1): antifungal activity” value under setting [2] is given as “++ (++ indicates a >5- to 10-fold improvement)”.

For “NLCERASKTWTGNCGNTKHCDNQCKNWEGAKHGACHKRSGKWKCFCYFNC (Defensin like) [L10-25]”, under setting [2], the “Activity (1): antifungal activity” value is “+ (+ indicates a 1- to 5-fold improvement in activity compared to a reference defensin protein)”.

As to “NLCERASKTWTGNCGNTKHCDNQCKNWEGAKHGACHVRNGKHKCFCYFNC (Defensin like) [L6-08]”, the “Activity (1): antifungal activity” value under setting [2] is on record as “+++ (+++ indicates a >10-fold improvement)”.

As to “NLCERASKTWTGNCGNTKHCDNQCKNWEGAKHGACHVRNGKWKCFCYFNC (Defensin like) [L6-03]”, the “Activity (1): antifungal activity” value under setting [2] is reported as “+++ (+++ indicates a >10-fold improvement)”.

With “NLCERASKTWTGNCGNTKHCDNQCKNWEGAKHGACHVRSGKHKCFCYFNC (Defensin like) [L6-23]”, under setting [2], the “Activity (1): antifungal activity” value was “++ (++ indicates a >5- to 10-fold improvement)”.

Take “NLCERASKTWTGNCGNTKHCDNQCKSWEGAKHGACHKRNGKWKCFCYFNC (Defensin like) [L10-51]”: the “Activity (1): antifungal activity” value under setting [2] was “++ (++ indicates a >5- to 10-fold improvement)”.

As for “NLCERASKTWTGNCGNTKHCDNQCKSWEGAKHGACHKRSGKWKCFCYFNC (Defensin like) [L9-04]”, the “Activity (1): antifungal activity” value under setting [2] is recorded as “++ (++ indicates a >5- to 10-fold improvement)”.

For “NLCERASKTWTGNCGNTKHCDNQCKSWEGAKHGACHVRNGKWKCFCYFNC (Defensin like) [L10-64]”, under setting [2], the “Activity (1): antifungal activity” value is reported as “++ (++ indicates a >5- to 10-fold improvement)”.

Regarding “NLCERASKTWTGNCGNTKHCDNQCKSWEGAKHGACHVRSGKHKCFCYFNC (Defensin like) [L5-37]”, the “Activity (1): antifungal activity” value under setting [2] was “++ (++ indicates a >5- to 10-fold improvement)”.

For “NLCERASKTWTGNCGNTKHCDNQCRNWEGAAHGACHKRNGKWKCFCYFNC (Defensin like) [L6-45]”, the “Activity (1): antifungal activity” value under setting [2] is “++ (++ indicates a >5- to 10-fold improvement)”.

With “NLCERASKTWTGNCGNTKHCDNQCRNWEGAKHGACHKRNGKWKCFCYFNC (Defensin like) [L9-12]”, the “Activity (1): antifungal activity” value under setting [2] was “+++ (+++ indicates a >10-fold improvement)”.

“NLCERASKTWTGNCGNTKHCDNQCRNWEGAKHGACHVRNGKHKCFCYFNC (Defensin like) [L6-35]”: the “Activity (1): antifungal activity” value under setting [2] is “++ (++ indicates a >5- to 10-fold improvement)”.

On to “NLCERASKTWTGNCGNTKHCDNQCRNWEGAKHGACHVRNGKWKCFCYFNC (Defensin like) [L6-07]”, for which, under setting [2], the “Activity (1): antifungal activity” value is “+++ (+++ indicates a >10-fold improvement)”.

As for “NLCERASKTWTGNCGNTKHCDNQCRNWEGAKHGACHVRSGKHKCFCYFNC (Defensin like) [L6-20]”, under setting [2], the “Activity (1): antifungal activity” value is on record as “++ (++ indicates a >5- to 10-fold improvement)”.
